Data reported in patent US20040161813A1, “Structure of beta-ketoacyl-[acyl carrier protein] synthases complexed with inhibitors and methods of use thereof” (St. Jude Children's Research Hospital, priority 2000, published 2004).
“Also recorded” adds a separate entry of the source. Where two headings read alike, the source gives them in different places.

How the values were obtained:
[1] = target: T1, E. coli FabF (β-ketoacyl-ACP synthase II) (Escherichia coli, UniProt P0AAI5); assay: FabF radiochemical condensing enzyme assay with myristoyl-ACP; format: biochemical
T1 construct: made in house
T1 sequence (P0AAI5 whole entry): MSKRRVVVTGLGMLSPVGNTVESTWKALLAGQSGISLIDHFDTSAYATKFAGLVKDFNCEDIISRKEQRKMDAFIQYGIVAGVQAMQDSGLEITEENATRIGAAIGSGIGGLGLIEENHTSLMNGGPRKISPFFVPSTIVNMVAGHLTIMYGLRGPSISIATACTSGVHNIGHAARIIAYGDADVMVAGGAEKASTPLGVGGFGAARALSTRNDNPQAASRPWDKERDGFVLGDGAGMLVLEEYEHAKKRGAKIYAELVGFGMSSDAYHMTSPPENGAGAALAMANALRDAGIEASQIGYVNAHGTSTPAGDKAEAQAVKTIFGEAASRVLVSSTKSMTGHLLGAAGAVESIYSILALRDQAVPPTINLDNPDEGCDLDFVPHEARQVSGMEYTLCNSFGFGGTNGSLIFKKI
Protocol: (§1) FabB and FabF radiochemical assay was performed using the scheme devised by Garwin et al. (11) using myristoyl-ACP as the substrate. The assays contained 100 μM ACP, 0.3 mM dithiothreitol, 1 mM EDTA, 0.1 M potassium phosphate buffer, pH 6.8, 50 μM [^14C]malonyl-CoA (specific activity 55 Ci/mole), 100 μM myristoyl-ACP, FabD (0.3 μg of protein), in a final volume of 20 μl. A mixture of ACP, 0.3 mM DTT, 1 mM EDTA, and the buffer was incubated at 37° C. for 30 min to ensure complete reduction ACP, and then the remaining components (except the condensing enzyme) were added. The mixture was then aliquoted into the assay tubes and the reaction was initiated by the addition of FabB or FabF. The reaction mixture was incubated at 37° C. for 20 min, then 400 μl of reducing agent (0.1 M K2HPO4, 0.4 M KCl, 30% tetrahydrofuran, and 5 mg/ml sodium borohydride) was added into the reaction tubes and incubated for 40 min.
(§2) Finally, 400 μl of toluene was added, vigorously mixed, and 300 μl of upper phase solution was counted in 3 ml of scintillation cocktail.

[2] = target: T2, E. coli FabB (β-ketoacyl-ACP synthase I) (Escherichia coli, UniProt P0A953); assay: FabB radiochemical condensing enzyme assay with myristoyl-ACP; format: biochemical
T2 construct: made in house; host or cells: pET-15b-FabB expression vector; Novagen expression strains
T2 sequence (P0A953 whole entry): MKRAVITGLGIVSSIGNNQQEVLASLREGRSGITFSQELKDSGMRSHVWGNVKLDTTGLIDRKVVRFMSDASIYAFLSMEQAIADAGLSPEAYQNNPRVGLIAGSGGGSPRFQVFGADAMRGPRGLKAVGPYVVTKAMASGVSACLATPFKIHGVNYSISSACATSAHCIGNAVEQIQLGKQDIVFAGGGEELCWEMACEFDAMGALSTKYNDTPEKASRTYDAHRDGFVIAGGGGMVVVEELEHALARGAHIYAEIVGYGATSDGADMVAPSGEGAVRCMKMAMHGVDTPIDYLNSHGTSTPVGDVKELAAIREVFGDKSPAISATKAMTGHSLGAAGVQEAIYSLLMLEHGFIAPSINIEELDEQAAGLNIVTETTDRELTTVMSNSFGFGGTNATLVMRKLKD
Protocol: as §1, §2

[3] = target: T3, E. coli FabH (β-ketoacyl-ACP synthase III) (Escherichia coli, UniProt P0A6R0); assay: FabH filter disc assay with [1-14C]acetyl-CoA; format: biochemical
T3 construct: made in house
T3 sequence (P0A6R0 whole entry): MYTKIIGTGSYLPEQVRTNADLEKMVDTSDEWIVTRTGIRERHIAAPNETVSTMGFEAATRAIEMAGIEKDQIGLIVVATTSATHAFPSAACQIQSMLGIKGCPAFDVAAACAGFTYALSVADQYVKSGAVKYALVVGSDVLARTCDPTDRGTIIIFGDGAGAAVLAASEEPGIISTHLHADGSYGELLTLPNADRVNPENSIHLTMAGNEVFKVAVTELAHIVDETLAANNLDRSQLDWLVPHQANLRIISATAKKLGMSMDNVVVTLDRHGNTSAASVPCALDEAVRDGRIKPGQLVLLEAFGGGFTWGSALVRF
Protocol: A filter disc assay was used to assay FabH activity with [1-^14C]acetyl-CoA as described previously (15,18). The assays contained 100 μM ACP, 1 mM β-mercaptoethanol, 45 μM [^14C]acetyl-CoA (specific activity, 52.0 Ci/mole), and 50 μM malonyl-CoA, E. coli FabD (0.3 μg) and 0.1 M sodium phosphate buffer (pH 7.0) in a final volume of 40 μl. The reaction was initiated by the addition of FabH and the mixture was incubated at 37° C. for 12 min. A 35-μl aliquot was removed and deposited on a Whatman 3MM filter disc. The discs were washed with three changes (20 ml/disc for 20 min) of ice-cold trichloroacetic acid. The concentration of the trichloroacetic acid was reduced from 10 to 5 to 1% in each successive wash. The filters were dried and counted in 3 ml of scintillation cocktail.

[4] = target: T4, FabB (Escherichia coli, UniProt P0A953); assay: Time course of FabB inhibition (reversibility); format: biochemical; settings: for Reversibility of FabB inhibition: 20 μM TLM or 3 μM cerulenin, with or without 30 min preincubation
T4 construct: made in house; host or cells: pET-15b-FabB expression vector; Novagen expression strains
T4 sequence (P0A953 whole entry): as the sequence (P0A953 whole entry) above
Protocol: The time course for the inhibition of FabB activity under five experimental conditions was determined to address the reversibility of the antibiotics. Time course for the FabB reaction in the absence of inhibitors (▾), in the presence of 20 μM TLM (●) or 3 μM cerulenin (∘). FabB was preincubated with either 20 μM TLM (▪) or 3 μM cerulenin (□) for 30 min prior to initiation of the reaction by the addition of the other substrates. FabB activity was measured using the radiochemical assay with myristoyl-ACP as the substrate as described under “Experimental Procedures” in the Example below.
as §1, §2
This hypothesis was examined by comparing the kinetics of TLM inhibition to that of cerulenin (FIG. 2), which is known to form a covalent complex with the active site cysteine of the condensing enzymes. […] This indicates the formation of the irreversible FabB-cerulenin binary complex. The same two types of time course experiments were performed with TLM (FIG. 2A).

[5] = target: B. subtilis FabF (Bacillus subtilis, UniProt O34340); assay: Inhibition of B. subtilis FabF in vitro; format: biochemical
Chain of B. subtilis FabF (O34340 whole entry): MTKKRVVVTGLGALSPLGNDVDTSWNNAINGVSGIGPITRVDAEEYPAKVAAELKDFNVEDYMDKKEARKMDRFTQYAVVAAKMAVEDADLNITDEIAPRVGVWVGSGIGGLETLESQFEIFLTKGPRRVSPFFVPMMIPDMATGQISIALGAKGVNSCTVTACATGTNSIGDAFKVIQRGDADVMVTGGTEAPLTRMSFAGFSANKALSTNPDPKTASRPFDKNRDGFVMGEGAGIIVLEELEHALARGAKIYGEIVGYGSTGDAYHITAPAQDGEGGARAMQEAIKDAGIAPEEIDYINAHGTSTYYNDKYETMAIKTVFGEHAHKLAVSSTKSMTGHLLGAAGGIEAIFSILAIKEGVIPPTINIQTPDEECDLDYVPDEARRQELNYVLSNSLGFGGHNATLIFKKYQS

[6] = cited from earlier work
[7] = test system: urinary tract and intraperitoneal bacterial infections; settings: mice; cited from earlier work
[8] = target: T5, FabB[H333N] (Escherichia coli, UniProt P0A953, H333N); assay: FabB[H333N] mutant radiochemical assay with 14:0-ACP primer; format: biochemical; settings: inhibition by cerulenin
T5 construct: made in house; host or cells: pET-15b-FabB expression vector; Novagen expression strains
T5 sequence (P0A953 1-406 H333N): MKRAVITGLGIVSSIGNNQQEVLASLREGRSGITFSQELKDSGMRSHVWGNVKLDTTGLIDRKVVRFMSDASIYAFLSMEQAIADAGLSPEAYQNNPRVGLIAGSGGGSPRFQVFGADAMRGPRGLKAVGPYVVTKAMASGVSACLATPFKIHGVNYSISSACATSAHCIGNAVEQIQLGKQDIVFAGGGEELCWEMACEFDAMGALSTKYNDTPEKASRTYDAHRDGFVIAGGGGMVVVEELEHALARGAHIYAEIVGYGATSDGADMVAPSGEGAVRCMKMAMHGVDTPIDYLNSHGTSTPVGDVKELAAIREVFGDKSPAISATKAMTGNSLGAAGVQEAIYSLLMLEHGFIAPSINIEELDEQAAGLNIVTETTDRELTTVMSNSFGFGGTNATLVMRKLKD
Protocol: as §1, §2
Construction of the FabB[H333N] mutant—A portion of the fabB gene was amplified using the polymerase chain reaction with two specific primers. The first primer introduced the desired mutation, and extended over a unique AgeI site (5′-[…]-3′, SEQ ID NO:3). The second primer created a BamHI site downstream of the stop codon (5′-[…]-3′, SEQ ID NO:4). […]

Compound	IC50 [1]	IC50 [2]	IC50 [3]	Reversibility of FabB inhibition [4]	Inhibition of B. subtilis FabF in vitro [5]	Toxicity to mice [6]	Protection against urinary tract and intraperitoneal bacterial infections [7]	IC50 ([1]; purified E. coli enzyme, myristoyl-ACP substrate, read-out: IC50 FabF)	IC50 ([2]; purified E. coli enzyme, myristoyl-ACP (14:0-ACP) substrate, read-out: IC50 FabB)	Sensitivity of FabH to inhibitor [3]	IC50 ([3]; purified E. coli enzyme, acetyl-CoA primer, read-out: IC50 FabH)	IC50 [8]	Product formation after preincubation of inhibitor with FabB ([4]; 3 μM cerulenin preincubated 30 min, reaction initiated with substrates)
C=C/C(C)=C/C1(C)SC(=O)C(C)=C1O (stereo in doubt) [TLM, (4S)(2E,5E)-2,4,6-trimethyl-3-hydroxy-2,5,7-octatriene-4-thiolide]	6 µM	25 µM	110 µM	reversible inhibitor; also recorded: reversibly inhibited	very weak inhibitor	not toxic	significant protection	–	–	–	–	–	–
C/C=C/C/C=C/CCC(=O)[C@H]1O[C@H]1C(N)=O [cerulenin, (2R,3S)-2,3-epoxy-4-oxo-7,10-dodecandienolyamide]	–	–	–	slow-binding, irreversible inhibitor; also recorded: irreversibly inhibited	–	–	–	20 µM	3 µM	essentially resistant	> 700 µM	30 µM	no discernable product formation
